# Experimental data taken from patent publication US20220386606A1, “SPECIFICALLY SUBSTITUTED 3-PHENYL-5-SPIROCYCLOPENTYL-3-PYRROLIN-2-ONES AND THEIR USE AS HERBICIDES” (Bayer Aktiengesellschaft, priority 2019, published 2022).
# Legend:
# ECHCG [1] = experiment: Post-emergence herbicidal action against ECHCG; format: in vivo, Echinochloa crus-galli; settings: 80 g/ha, visual assessment about 3 weeks after treatment vs untreated controls
# How it was run: (§1)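 Visual scoring about 3 weeks after treatment gave % herbicidal action relative to untreated plants (0% = control-like, 100% = plants dead). Compounds, as WP or EC with 0.2% wetting agent, were sprayed onto green parts at 600–800 l/ha. Plants had reached the one-leaf stage, 2–3 weeks after sowing in sandy loam under greenhouse conditions.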
# AMARE = experiment: Pre-emergence herbicidal action against AMARE; format: in vivo, Amaranthus retroflexus; settings: 320 g/ha
# How it was run: (§2)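 Visual percent damage, rated 3 weeks after treatment against untreated plants (0% like control, 100% plants dead). Compounds, as wettable powders or emulsion concentrates, were sprayed pre-emergence onto soil covering seeds sown in sandy loam, at 600 to 800 L/ha water with 0.2% wetting agent; pots kept in greenhouse.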
# DIGSA [2] = experiment: Pre-emergence herbicidal action against DIGSA; format: in vivo, Digitaria sanguinalis; settings: 320 g/ha, scored visually after 3 weeks vs untreated controls
# How it was run: as §2
# LOLRI [3] = experiment: Post-emergence herbicidal action against LOLRI; format: in vivo, Lolium rigidum; settings: 80 g/ha, visual assessment about 3 weeks after treatment vs untreated controls
# How it was run: as §1
# VIOTR = experiment: Pre-emergence herbicidal action against VIOTR; format: in vivo, Viola tricolor; settings: 320 g/ha
# How it was run: as §2
# LOLRI [4] = experiment: Pre-emergence herbicidal action against LOLRI (Table 8, titled post-emergence at 320 g/ha); format: in vivo, Lolium rigidum; settings: table stands in the pre-emergence section
# How it was run: as §2
# ALOMY [5] = experiment: Post-emergence herbicidal action against ALOMY; format: in vivo, Alopecurus myosuroides; settings: 80 g/ha, visual assessment after about 3 weeks
# How it was run: as §1
# DIGSA [6] = experiment: Post-emergence herbicidal action against DIGSA; format: in vivo, Digitaria sanguinalis; settings: 80 g/ha, visual assessment about 3 weeks after treatment vs untreated controls
# How it was run: as §1
# ALOMY [7] = experiment: Pre-emergence herbicidal action against ALOMY; format: in vivo, Alopecurus myosuroides; settings: 320 g/ha, scored visually after 3 weeks vs untreated controls
# How it was run: as §2
# SETVI [8] = experiment: Pre-emergence herbicidal action against SETVI; format: in vivo, Setaria viridis; settings: 320 g/ha, scored visually after 3 weeks vs untreated controls
# How it was run: as §2
# AVEFA [9] = experiment: Post-emergence herbicidal action against AVEFA; format: in vivo, Avena fatua; settings: 80 g/ha, visual assessment after about 3 weeks
# How it was run: as §1
# ABUTH = experiment: Post-emergence herbicidal action against ABUTH; format: in vivo, Abutylon threophrasti; settings: 80 g/ha, visual assessment about 3 weeks after treatment vs untreated controls
# Description: Seeds of monocotyledonous and dicotyledonous weed and crop plants are laid out in sandy loam soil in wood-fiber pots, covered with soil and cultivated in a greenhouse under good growth conditions. 2 to 3 weeks after sowing, the test plants are treated at the one-leaf stage. The compounds of the invention, formulated in the form of wettable powders (WP) or as emulsion concentrates (EC), are then sprayed onto the green parts of the plants as aqueous suspension or emulsion at a water application rate equating to 600 to 800 l/ha with addition of 0.2% wetting agent. After the test plants have been left to stand in the greenhouse under optimal growth conditions for about 3 weeks, the action of the preparations is assessed visually in comparison to untreated controls (herbicidal action in percent (%): 100% activity=the plants have died, 0% activity=like control plants).
# AVEFA [10] = experiment: Pre-emergence herbicidal action against AVEFA; format: in vivo, Avena fatua; settings: 320 g/ha, scored visually after 3 weeks vs untreated controls
# How it was run: as §2
# SETVI [11] = experiment: Post-emergence herbicidal action against SETVI; format: in vivo, Setaria viridis; settings: 80 g/ha, visual assessment about 3 weeks after treatment vs untreated controls
# How it was run: as §1
# ECHCG [12] = experiment: Pre-emergence herbicidal action against ECHCG; format: in vivo, Echinochloa crus-galli; settings: 320 g/ha, scored visually after 3 weeks vs untreated controls
# How it was run: as §2
# MATIN = experiment: Pre-emergence herbicidal action against MATIN; format: in vivo; settings: 320 g/ha
# From the text: Seeds of monocotyledonous and dicotyledonous weed plants and crop plants are laid out in sandy loam soil in wood-fiber pots and covered with soil. The compounds of the invention, formulated in the form of wettable powders (WP) or as emulsion concentrates (EC), are then applied to the surface of the covering soil as aqueous suspension or emulsion at a water application rate equating to 600 to 800 L/ha with addition of 0.2% wetting agent.
# After the treatment, the pots are placed in a greenhouse and kept under good growth conditions for the trial plants. The damage to the test plants is scored visually after a test period of 3 weeks by comparison with untreated controls (herbicidal activity in percent (%): 100% activity=the plants have died, 0% activity=like control plants).
# VERPE = experiment: Pre-emergence herbicidal action against VERPE; format: in vivo, Veronica persica; settings: 320 g/ha
# How it was run: as §2
compound,measurement,setting,value
CC#Cc1cc(C)c(C2=C(O)C3(CCC(COCC)C3)NC2=O)c(F)c1 (stereo not drawn) [Example I-35],Post-emergence action against ECHCG in %,ECHCG [1],100%
same,Pre-emergence action against AMARE in %,AMARE,90%
same,Pre-emergence action against DIGSA in %,DIGSA [2],100%
same,Post-emergence action against LOLRI in %,LOLRI [3],100%
same,Pre-emergence action against VIOTR in %,VIOTR,100%
same,Pre-emergence herbicidal action against LOLRI in %,LOLRI [4],100%
same,Post-emergence action against ALOMY in %,ALOMY [5],100%
same,Post-emergence action against DIGSA in %,DIGSA [6],100%
same,Pre-emergence action against ALOMY in %,ALOMY [7],100%
same,Pre-emergence action against SETVI in %,SETVI [8],100%
same,Post-emergence action against AVEFA in %,AVEFA [9],80%
same,Post-emergence action against ABUTH in %,ABUTH,80%
CC#Cc1cc(F)c(C2=C(O)C3(CCC(COCC)C3)NC2=O)c(OC)c1 (stereo not drawn) [Example I-42],Post-emergence action against ECHCG in %,ECHCG [1],100%
same,Pre-emergence action against AVEFA in %,AVEFA [10],90%
same,Pre-emergence action against DIGSA in %,DIGSA [2],100%
same,Post-emergence action against LOLRI in %,LOLRI [3],90%
same,Post-emergence action against SETVI in %,SETVI [11],100%
same,Pre-emergence action against VIOTR in %,VIOTR,80%
same,Pre-emergence action against ECHCG in %,ECHCG [12],80%
same,Pre-emergence herbicidal action against LOLRI in %,LOLRI [4],100%
same,Post-emergence action against ALOMY in %,ALOMY [5],90%
same,Post-emergence action against DIGSA in %,DIGSA [6],100%
same,Pre-emergence action against SETVI in %,SETVI [8],100%
same,Post-emergence action against AVEFA in %,AVEFA [9],90%
same,Post-emergence action against ABUTH in %,ABUTH,80%
same,Pre-emergence action against MATIN in %,MATIN,80%
C#CCOCC1CCC2(C1)NC(=O)C(c1c(C)cc(C#CC)cc1Cl)=C2O (stereo not drawn) [Example I-78],Post-emergence action against ECHCG in %,ECHCG [1],90%
same,Pre-emergence action against AMARE in %,AMARE,100%
same,Pre-emergence action against AVEFA in %,AVEFA [10],90%
same,Pre-emergence action against DIGSA in %,DIGSA [2],100%
same,Post-emergence action against LOLRI in %,LOLRI [3],90%
same,Post-emergence action against SETVI in %,SETVI [11],100%
same,Pre-emergence action against VIOTR in %,VIOTR,100%
same,Pre-emergence action against ECHCG in %,ECHCG [12],100%
same,Pre-emergence herbicidal action against LOLRI in %,LOLRI [4],100%
same,Post-emergence action against ALOMY in %,ALOMY [5],100%
same,Post-emergence action against DIGSA in %,DIGSA [6],90%
same,Pre-emergence action against ALOMY in %,ALOMY [7],100%
same,Pre-emergence action against VERPE in %,VERPE,90%
same,Pre-emergence action against SETVI in %,SETVI [8],100%
same,Post-emergence action against AVEFA in %,AVEFA [9],80%
same,Pre-emergence action against MATIN in %,MATIN,80%
CC#Cc1cc(Br)c(C2=C(OC(=O)OCC)C3(CCC(COCC)C3)NC2=O)c(OC)c1 (stereo not drawn) [Example P-01],Post-emergence action against ECHCG in %,ECHCG [1],100%
same,Pre-emergence action against AMARE in %,AMARE,100%
same,Pre-emergence action against AVEFA in %,AVEFA [10],100%
same,Pre-emergence action against DIGSA in %,DIGSA [2],100%
same,Post-emergence action against LOLRI in %,LOLRI [3],100%
same,Post-emergence action against SETVI in %,SETVI [11],100%
same,Pre-emergence action against VIOTR in %,VIOTR,100%
same,Pre-emergence action against ECHCG in %,ECHCG [12],100%
same,Pre-emergence herbicidal action against LOLRI in %,LOLRI [4],100%
same,Post-emergence action against ALOMY in %,ALOMY [5],100%
same,Post-emergence action against DIGSA in %,DIGSA [6],100%
same,Pre-emergence action against ALOMY in %,ALOMY [7],100%
same,Pre-emergence action against VERPE in %,VERPE,100%
same,Pre-emergence action against SETVI in %,SETVI [8],100%
same,Pre-emergence action against MATIN in %,MATIN,80%
